According to US20020004220A1 (priority 1999, published 2002):
Values after ≈ are worked out from the molar mass of the structure shown.

Columns and labels:
Staphylococcus aureus = assay: microbe, parasite or virus in culture; assay type: cell-based; details: read-out: MIC (MIC99)
Escherichia coli = assay: microbe, parasite or virus in culture; assay type: cell-based; details: read-out: MIC (MIC99)

SMILES: CC1(C)S[C@@H]2[C@H](NC(=O)Cc3ccccc3)C(=O)N2[C@H]1C(=O)O [Penicillin]
- MIC99 (Staphylococcus aureus): 0.024 µg/mL (≈ 0.0718 µM)
- MIC99 (Escherichia coli): 3 µg/mL (≈ 8.97 µM)

SMILES: O=C(N[C@H](CO)[C@H](O)c1ccc([N+](=O)[O-])cc1)C(Cl)Cl [Chloramphenicol]
- MIC99 (Staphylococcus aureus): 1.9 µg/mL (≈ 5.88 µM)
- MIC99 (Escherichia coli): 1.9 µg/mL (≈ 5.88 µM)

SMILES: CCn1cc(C(=O)O)c(=O)c2cc(F)c(N3CCNCC3)cc21 [Norfloxacin]
- MIC99 (Staphylococcus aureus): 0.85 µg/mL (≈ 2.66 µM)
- MIC99 (Escherichia coli): 0.045 µg/mL (≈ 0.141 µM)

SMILES: CN[C@H](CC(C)C)C(=O)N[C@H]1C(=O)N[C@@H](CC(N)=O)C(=O)N[C@H]2C(=O)N[C@H]3C(=O)N[C@H](C(=O)N[C@H](C(=O)O)c4cc(O)cc(O)c4-c4cc3ccc4O)[C@H](O)c3ccc(c(Cl)c3)Oc3cc2cc(c3O[C@@H]2O[C@H](CO)[C@@H](O)[C@H](O)[C@H]2O[C@H]2C[C@](C)(N)[C@H](O)[C@H](C)O2)Oc2ccc(cc2Cl)[C@H]1O [Vancomycin]
- MIC99 (Staphylococcus aureus): 0.65 µg/mL (≈ 0.449 µM)

SMILES: NC[C@H]1O[C@H](O[C@H]2[C@H](O)[C@@H](O[C@H]3O[C@H](CO)[C@@H](O)[C@H](N)[C@H]3O)[C@H](N)C[C@@H]2N)[C@H](N)C[C@@H]1O [Tobramycin]
- MIC99 (Staphylococcus aureus): 0.27 µg/mL (≈ 0.578 µM)
- MIC99 (Escherichia coli): 1.2 µg/mL (≈ 2.57 µM)

SMILES: CO[C@H]1/C=C/O[C@@]2(C)Oc3c(C)c(O)c4c(O)c(c(/C=N/N5CCN(C)CC5)c(O)c4c3C2=O)NC(=O)/C(C)=C\C=C\[C@H](C)[C@H](O)[C@@H](C)[C@@H](O)[C@@H](C)[C@H](OC(C)=O)[C@@H]1C [Rifampicin]
- MIC99 (Staphylococcus aureus): 0.004 µg/mL (≈ 0.00486 µM)
- MIC99 (Escherichia coli): 5 µg/mL (≈ 6.08 µM)
